Experimental data: patent US20250268826A1, “IONIZABLE LIPIDOID COMPOSITIONS AND THERAPEUTIC USES THEREOF” (Flagship Pioneering Innovations VII, LLC, priority 2023, published 2025)
Read-outs that look alike come from different tables or passages of the source.

Key:
Type in all cases: physicochemical
[1] = Encapsulation efficiency (EE %) by fluorescence based Ribogreen assay
[2] = LNP Zeta potential measured using a Zetasizer (Malvern); conditions: for Zeta potential: hEPO mRNA, N:P 6; for Zeta potential (mV): LNP with hEPO mRNA, N:P ratio 6
[3] = LNP size and polydispersity index (PDI) by dynamic light scattering (DLS)
[4] = Table 9, LNP 50:10:38.5:1.5 mol %, hEPO mRNA, N:P 6
[5] = Table 9, LNP 50:10:38.5:1.5 mol %
[6] = Table 9, LNP Lipid:DSPC:Cholesterol:DMG-PEG2k 50:10:38.5:1.5 mol %, hEPO mRNA, N:P 6
[7] = Table 11, LNP with hEPO mRNA, Lipid:DSPC:Cholesterol:DMG-PEG2k 50:10:38.5:1.5 mol % (ALC-0315: 46.3:9.4:42.7:1.6), N:P ratio 6, HEPES/sodium chloride/sucrose buffer, stored at −80C
[8] = Table 10, LNP with hEPO mRNA, Lipid:DSPC:Cholesterol:DMG-PEG2k 50:10:38.5:1.5 mol %, N:P ratio 6, DLS
[9] = Table 1, LNP lipid:DSPC:Cholesterol:DMG-PEG2k 50:10:38.5:1.5 mol %, hEPO mRNA, N:P 6
[10] = Table 1, LNP lipid:DSPC:Cholesterol:DMG-PEG2k 50:10:38.5:1.5 mol %
[11] = Table 3, LNP 50:10:38.5:1.5 mol %, hEPO mRNA, N:P 6
[12] = Table 5, LNP 50:10:38.5:1.5 mol %, hEPO mRNA, N:P 6
[13] = Table 5, LNP 60:0:38.5:1.5 mol %, hEPO mRNA, N:P 6
[14] = Table 3, LNP lipid:DSPC:Cholesterol:DMG-PEG2k 50:10:38.5:1.5 mol %, hEPO mRNA, N:P 6
[15] = Table 8, LNP 50:10:38.5:1.5 mol %, hEPO mRNA, N:P 6

Question: With `CCCCCCCCC(CCCCCC)C(=O)OCCN(CCOC(=O)C(CCCCCC)CCCCCCCC)C(=O)CN(CC)CCC.Cl` (single isomer, unassigned) [Compound 960a] as the compound, how does the “Encapsulation Efficiency %” value [1, 4] read?
Answer: Its value is 99.7%.

Question: What about the Zeta potential [2, 5] of the same compound?
Answer: Its Zeta potential is −28.49 mV.

Question: And the PDI [3, 4]?
Answer: The PDI was 0.125.

Question: And the Size [3, 6]?
Answer: Its Size is 77.4 nm.

Question: With `CCCCCCCCC(CCCCCC)C(=O)OCCN(CCOC(=O)C(CCCCCC)CCCCCCCC)C(=O)CN(CC)CCC.Cl` (single isomer, unassigned) [Compound 960b] as the compound, how does the “Encapsulation Efficiency %” value [1, 4] read?
Answer: Its value is 99.8%.

Question: And the Zeta potential [2, 5]?
Answer: The Zeta potential was −23.35 mV.

Question: What about the PDI [3, 4] of the same compound?
Answer: The PDI was 0.099.

Question: And the Size [3, 6]?
Answer: The Size was 61.4 nm.

Question: What does the source list for `CCCCCCCCC(CCCCCC)C(=O)OCCCCCCN(CCCCO)CCCCCCOC(=O)C(CCCCCC)CCCCCCCC` (stereo not shown) [ALC-0315, reference compound]?
Answer: Encapsulation Efficiency % ([1]; Table 10, LNP with hEPO mRNA, Lipid:DSPC:Cholesterol:DMG-PEG2k 50:10:38.5:1.5 mol %, N:P ratio 6, Ribogreen assay): 83.8%; Encapsulation Efficiency % [1, 7]: 91.0%; Zeta potential (mV) ([2]; Table 10, Lipid:DSPC:Cholesterol:DMG-PEG2k 50:10:38.5:1.5 mol %): −10.3 mV; Zeta potential (mV) ([2]; Table 11, Lipid:DSPC:Cholesterol:DMG-PEG2k 50:10:38.5:1.5 mol % (ALC-0315: 46.3:9.4:42.7:1.6), HEPES/sodium chloride/sucrose buffer, stored at −80C): −7.5 mV; PDI [3, 8]: 0.295; Size (nm) [3, 8]: 61.4 nm; PDI [3, 7]: 0.280; Size (nm) [3, 7]: 74.7 nm

Question: What does the source list for `CCCCCCCC/C=C\CCCCCCCC(=O)OCCN(CCOC(=O)CCCCCCC/C=C\CCCCCCCC)C(=O)CN` [Compound 101]?
Answer: Encapsulation Efficiency % [1, 9]: 97.9%; Zeta potential [2, 10]: 4.394 mV; PDI [3, 9]: 0.088; Size [3, 9]: 62.6 nm

Question: Which “Encapsulation Efficiency %” value [1, 9] does the source give for `CCCCCCCCCCCC(=O)OCCN(CCOC(=O)CCCCCCCCCCC)C(=O)CN` [Compound 103] here?
Answer: The value was 97.5%.

Question: What about the Zeta potential [2, 10] of the same compound?
Answer: The Zeta potential was 9.778 mV.

Question: What about the PDI [3, 9] of the same compound?
Answer: The PDI was 0.092.

Question: And the Size [3, 9]?
Answer: The Size was 77.3 nm.

Question: What does the source list for `CCCCCCCCCC(=O)OCCN(CCOC(=O)CCCCCCCCC)C(=O)CN` [Compound 104]?
Answer: Encapsulation Efficiency % [1, 9]: 94.4%; Zeta potential [2, 10]: −2.361 mV; PDI [3, 9]: 0.441; Size [3, 9]: 74.7 nm

Question: Which “Encapsulation Efficiency %” value [1, 9] does the source give for `CCCCCCCCC(CCCCCC)C(=O)OCCN(CCOC(=O)C(CCCCCC)CCCCCCCC)C(=O)CN` (stereo not shown) [Compound 105] here?
Answer: The value was 91.3%.

Question: And the “Encapsulation Efficiency %” value [1, 11]?
Answer: The value was 99.9%.

Question: What about the “Encapsulation Efficiency %” value [1, 12] of the same compound?
Answer: Its value is 99.6%.

Question: What about the “Encapsulation Efficiency %” value [1, 13] of the same compound?
Answer: Its value is 99.3%.

Question: What about the Zeta potential [2, 10] of the same compound?
Answer: Its Zeta potential is −4.852 mV.

Question: What about the Zeta potential ([2]; Table 5, LNP 50:10:38.5:1.5 mol %) of the same compound?
Answer: The Zeta potential was −5.091 mV.

Question: What about the Zeta potential ([2]; Table 5, LNP 60:0:38.5:1.5 mol %) of the same compound?
Answer: Its Zeta potential is −8.315 mV.

Question: And the PDI [3, 9]?
Answer: The PDI was 0.217.

Question: And the Size [3, 9]?
Answer: The Size was 72.6 nm.

Question: And the PDI [3, 11]?
Answer: The PDI was 0.256.

Question: What about the Size [3, 14] of the same compound?
Answer: Its Size is 162.2 nm.

Question: And the PDI [3, 12]?
Answer: Its PDI is 0.104.

Question: And the PDI [3, 13]?
Answer: The PDI was 0.198.

Question: And the Size [3, 13]?
Answer: Its Size is 146.3 nm.

Question: And the Size ([3]; Table 5, LNP Lipid:DSPC:Cholesterol:DMG-PEG2k 50:10:38.5:1.5 mol %, hEPO mRNA, N:P 6)?
Answer: The Size was 166.9 nm.

Question: Which results are given for `CCCCCCCC/C=C\CCCCCCCC(=O)OCCN(CCOC(=O)CCCCCCC/C=C\CCCCCCCC)C(=O)C(C)N` (stereo not shown) [Compound 107]?
Answer: Encapsulation Efficiency % [1, 9]: 93%; Encapsulation Efficiency % [1, 11]: 99.9%; Zeta potential [2, 10]: 5.484 mV; Size [3, 9]: 100.4 nm; PDI [3, 11]: 0.016; Size [3, 14]: 60.6 nm

Question: For `CCCCCCCC/C=C\CCCCCCCC(=O)OCCN(CCOC(=O)CCCCCCC/C=C\CCCCCCCC)C(=O)C(N)Cc1c[nH]cn1` (stereo not shown) [Compound 125], which “Encapsulation Efficiency %” value [1, 9] is on record?
Answer: The value was 99.4%.

Question: What about the PDI [3, 9] of the same compound?
Answer: Its PDI is 0.46.

Question: What about the Size [3, 9] of the same compound?
Answer: Its Size is 109.4 nm.

Question: Which “Encapsulation Efficiency %” value [1, 9] does the source give for `CCCCCCCCC(CCCCCC)C(=O)OCCN(CCOC(=O)C(CCCCCC)CCCCCCCC)C(=O)C(N)Cc1c[nH]cn1` (stereo not shown) [Compound 129] here?
Answer: Its value is 99.7%.

Question: And the Size [3, 9]?
Answer: The Size was 93.8 nm.

Question: What does the source list for `CCCCCCCC/C=C\CCCCCCCC(=O)OCCN(CCOC(=O)CCCCCCC/C=C\CCCCCCCC)C(=O)[C@H](C)N.Cl` [Compound 201]?
Answer: Encapsulation Efficiency % [1, 11]: 99.9%; PDI [3, 11]: 0.032; Size [3, 14]: 63.1 nm

Question: For `CCCCCCCC/C=C\CCCCCCCC(=O)OCCN(CCOC(=O)CCCCCCC/C=C\CCCCCCCC)C(=O)[C@@H](N)Cc1ccccc1.Cl` [Compound 202], which “Encapsulation Efficiency %” value [1, 11] is on record?
Answer: Its value is 99.7%.

Question: And the PDI [3, 11]?
Answer: The PDI was 0.033.

Question: And the Size [3, 14]?
Answer: Its Size is 60.7 nm.

Question: What does the source list for `CCCCCCCCC(CCCCCC)C(=O)OCCN(CCOC(=O)C(CCCCCC)CCCCCCCC)C(=O)CC(C)NCCC.Cl` (stereo not shown) [Compound 948]?
Answer: Encapsulation Efficiency % [1, 15]: 99.7%; PDI [3, 15]: 0.188; Size ([3]; Table 8, LNP Lipid:DSPC:Cholesterol:DMG-PEG2k 50:10:38.5:1.5 mol %, hEPO mRNA, N:P 6): 74.1 nm

Question: Which “Encapsulation Efficiency %” value [1] does the source give for `CCCCCCCCC(CCCCCC)C(=O)OCCN(CCOC(=O)C(CCCCCC)CCCCCCCC)C(=O)CN(C)C` (stereo not shown) [Compound 961] here?
Answer: The value was 99.8%.
